Test results as given in patent US8273773B2 (priority 2008, dated 2012).

What was measured:
[1] = target: T1, HCV polymerase (NS5B570n-Con1) (Hepatitis C virus genotype 1b, UniProt Q9WMX2); assay: biochemical; design: species or system HCV Con1 strain;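 further: recombinant His-tagged enzyme from E. coli, radiolabeled nucleotide incorporation into acid-insoluble RNA read by scintillation after filtration, no-enzyme background subtracted, activity relative to positive control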
T1 construct: contains a 21 amino acid deletion at the C-terminus relative to the full-length HCV polymerase; 6-histidine (N); made in house; host or cells: E. coli strain BL21(DE) pLysS (pET17b)

[2] = IC50 HCV NS5B RNA Polymerase Assay, values without asterisk, 20 nM NS5B570n-Con1 enzyme, 20 nM cIRES RNA template

COc1c(/C=C(\C)c2ccc(NS(C)(=O)=O)cc2)cc(-c2ccc[nH]c2=O)cc1C(C)(C)C [I-139, N-(4-{(E)-2-[3-tert-Butyl-2-methoxy-5-(2-oxo-1,2-dihydro-pyridin-3-yl)-phenyl]-1-methyl-vinyl}-phenyl)-methanesulfonamide]
melting point: 292 to 294 °C | IC50 [1, 2]: 8 nM

COc1c(CCc2ccc(N)cc2)cc(-c2ccc[nH]c2=O)cc1C1(C)CC1 [I-99, 3-[3-[2-(4-amino-phenyl)-ethyl]-4-methoxy-5-(1-methyl-cyclopropyl)-phenyl]-1H-pyridin-2-one]
melting point: 209 to 211 °C | IC50 [1, 2]: 590 nM

CC(C)(C)c1cc(Cc2ccccc2)cc(-c2ccc[nH]c2=O)c1 [I-46, 3-(3-Benzyl-5-tert-butyl-phenyl)-1H-pyridin-2-one]
melting point: 180 to 181 °C | IC50 [1, 2]: 534 nM

COc1c(C(=O)NC2CCCCC2)cc(-c2ccc[nH]c2=O)cc1C(C)(C)C [I-101]
melting point: 136 to 138 °C | IC50 [1, 2]: 753 nM

COc1ccc(-c2ccc[nH]c2=O)cc1C1(C)CC1 [I-61]
melting point: 194 to 195 °C | IC50 [1, 2]: 1230 nM

CC(C)(C)c1cc(Oc2ccccc2)cc(-c2ccc[nH]c2=O)c1 [I-45, 3-(3-tert-Butyl-5-phenoxy-phenyl)-1H-pyridin-2-one]
melting point: 90 to 91 °C | IC50 [1, 2]: 786 nM

COc1c(CCc2ccc(NS(C)(=O)=O)cc2)cc(-c2ccc[nH]c2=O)cc1C1(C)CC1 [I-108, N-(4-{2-[2-Methoxy-3-(1-methyl-cyclopropyl)-5-(2-oxo-1,2-dihydro-pyridin-3-yl)-phenyl]-ethyl}-phenyl)-methanesulfonamide]
melting point: 192 to 194 °C | IC50 [1, 2]: 6 nM

COc1c(C(=O)c2cccc(F)c2)cc(-c2ccc[nH]c2=O)cc1C(C)(C)C [I-49]
melting point: 209 to 210 °C | IC50 [1, 2]: 71 nM

COc1c(CCc2ccc(NS(C)(=O)=O)cc2)cc(-c2cc(F)c[nH]c2=O)cc1C(C)(C)C [I-67]
melting point: 125 to 130 °C | IC50 [1, 2]: 10 nM

CC(C)(C)c1cc(CCc2ccc(NS(C)(=O)=O)cc2)c(OCCO)c(-c2ccc[nH]c2=O)c1 [I-118, N-(4-{2-[5-tert-Butyl-2-(2-hydroxy-ethoxy)-3-(2-oxo-1,2-dihydro-pyridin-3-yl)-phenyl]-ethyl}-phenyl)-methanesulfonamide]
melting point: 223 to 225 °C | IC50 [1, 2]: 15 nM

COc1c(C(=O)Nc2ccc(CNS(C)(=O)=O)cc2)cc(-c2ccc[nH]c2=O)cc1C(C)(C)C [I-76]
melting point: 213 to 216 °C | IC50 [1, 2]: 62 nM

CC(C)(C)c1cc(CCc2ccc(NS(C)(=O)=O)cc2)cc(-c2ccc[nH]c2=O)c1 [I-74]
melting point: 211 to 213 °C | IC50 [1, 2]: 25 nM

COc1c(C(=O)Nc2ccccc2)cc(-c2ccc[nH]c2=O)cc1C(C)(C)C [I-68]
melting point: 288 to 290 °C | IC50 [1, 2]: 107 nM

CC(C)(C)c1cc(/C=C/c2ccc(NS(C)(=O)=O)cc2)cc(-c2cc(F)c[nH]c2=O)c1 [I-148]
melting point: 210 to 212 °C | IC50 [1, 2]: 6 nM

CCOc1cc(NS(C)(=O)=O)ccc1C(=O)Nc1cc(-c2ccc[nH]c2=O)cc(C(C)(C)C)c1OC [I-115]
melting point: 290 to 292 °C | IC50 [1, 2]: 9 nM

COc1c(CC(CN)c2ccc(NS(C)(=O)=O)cc2)cc(-c2ccc[nH]c2=O)cc1C(C)(C)C (stereo not drawn) [I-191, N-(4-{1-Aminomethyl-2-[3-tert-butyl-2-methoxy-5-(2-oxo-1,2-dihydro-pyridin-3-yl)-phenyl]-ethyl}-phenyl)-methanesulfonamide]
melting point: 158 to 160 °C | IC50 [1, 2]: 27 nM

COc1c(CCc2ccc(F)cc2)cc(-c2ccc[nH]c2=O)cc1C(C)(C)C [I-21]
melting point: 157 to 158 °C | IC50 [1, 2]: 90 nM

CC(C)(C)c1cc(-c2ccc[nH]c2=O)cc(NC(=O)c2ccc(NS(C)(=O)=O)cc2)c1F [I-73, N-[3-tert-Butyl-2-fluoro-5-(2-oxo-1,2-dihydro-pyridin-3-yl)-phenyl]-4-methanesulfonylamino-benzamide]
melting point: 286 to 288 °C | IC50 [1, 2]: 54 nM

COc1c(/C=C/c2ccc(NS(C)(=O)=O)cc2CO)cc(-c2ccc[nH]c2=O)cc1C(C)(C)C [I-205, N-(4-{(E)-2-[3-tert-Butyl-2-methoxy-5-(2-oxo-1,2-dihydro-pyridin-3-yl)-phenyl]-vinyl}-3-hydroxymethyl-phenyl)-methanesulfonamide]
melting point: 140 to 142 °C | IC50 ([1]; IC50 HCV NS5B RNA Polymerase Assay (values with asterisk), values with asterisk: cIRES RNA template, 3 nM NS5B570n-Con1): 2 nM

CCOc1ccc(-c2ccc[nH]c2=O)cc1C(C)(C)C [I-5]
melting point: 201 to 202 °C | IC50 [1, 2]: 4680 nM

CC(C)(C)c1cc(/C=C/c2ccc(NS(C)(=O)=O)cc2C#N)cc(-c2ccc[nH]c2=O)c1 [I-147, N-(4-{(E)-2-[3-tert-Butyl-5-(2-oxo-1,2-dihydro-pyridin-3-yl)-phenyl]-vinyl}-3-cyano-phenyl)-methanesulfonamide]
melting point: > 300 °C | IC50 [1, 2]: 2 nM

CC(C)(C)c1cc(Cl)c(O)c(-c2ccc[nH]c2=O)c1 [I-16]
melting point: 211.4 to 213.5 °C | IC50 [1, 2]: 532 nM

CC(=O)Nc1c(CCc2ccc(NS(C)(=O)=O)cc2)cc(C(C)(C)C)cc1-c1ccc[nH]c1=O [I-80, N-[4-tert-Butyl-2-[2-(4-methanesulfonylamino-phenyl)-ethyl]-6-(2-oxo-1,2-dihydro-pyridin-3-yl)-phenyl]-acetamide]
melting point: 180 to 182 °C | IC50 [1, 2]: 97 nM

COc1c(C(=O)Nc2ccc(NS(C)(=O)=O)cc2C)cc(-c2ccc[nH]c2=O)cc1C(C)(C)C [I-69, 3-tert-Butyl-N-(4-methanesulfonylamino-2-methyl-phenyl)-2-methoxy-5-(2-oxo-1,2-dihydro-pyridin-3-yl)-benzamide]
melting point: 278 to 280 °C | IC50 [1, 2]: 13 nM

COc1c(C(=O)c2cccc(C(N)=O)c2)cc(-c2ccc[nH]c2=O)cc1C(C)(C)C [I-63]
melting point: 150 to 160 °C | IC50 [1, 2]: 10 nM

CC(C)(C)c1cc(CCc2ccc(NS(C)(=O)=O)cn2)c(C#N)c(-c2ccc[nH]c2=O)c1 [I-114, N-(6-{2-[5-tert-Butyl-2-cyano-3-(2-oxo-1,2-dihydro-pyridin-3-yl)-phenyl]-ethyl}-pyridin-3-yl)-methanesulfonamide]
melting point: 143 to 145 °C | IC50 [1, 2]: 15 nM

COc1c(C(=O)c2ccc(F)cc2)cc(-c2ccc[nH]c2=O)cc1C(C)(C)C [I-50]
melting point: 203 to 205 °C | IC50 [1, 2]: 52 nM

CC(C)(C)c1cc(-c2ccc[nH]c2=O)cc(S(=O)(=O)c2ccccc2)c1 [I-107, 3-(3-Benzenesulfonyl-5-tert-butyl-phenyl)-1H-pyridin-2-one]
melting point: 252 to 253 °C | IC50 [1, 2]: 2490 nM

COc1c(C(=O)c2ccc(O)cc2)cc(-c2ccc[nH]c2=O)cc1C(C)(C)C [I-55]
melting point: 185 to 187 °C | IC50 [1, 2]: 59 nM

COc1ccc(-c2ccc[nH]c2=O)cc1C(C)(C)OC [I-62]
melting point: 154 to 155 °C | IC50 [1, 2]: 4130 nM

COc1cc(-c2ccc[nH]c2=O)cc(C(C)(C)C)c1OC [I-26]
melting point: 206.3 to 207.1 °C | IC50 [1, 2]: 866 nM

COc1c(CC(C)(C#N)c2ccc(NS(C)(=O)=O)cc2)cc(-c2ccc[nH]c2=O)cc1C(C)(C)C (stereo not drawn) [I-196, N-(4-{2-[3-tert-Butyl-2-methoxy-5-(2-oxo-1,2-dihydro-pyridin-3-yl)-phenyl]-1-cyano-1-methyl-ethyl}-phenyl)-methanesulfonamide]
melting point: 158 to 160 °C | IC50 [1, 2]: 30 nM

COc1c(CCc2cnc(NS(C)(=O)=O)nc2)cc(-c2ccc[nH]c2=O)cc1C(C)(C)C [I-125]
melting point: 282 to 283 °C | IC50 [1, 2]: 16 nM

COc1c(/C=C/c2ccc(NS(C)(=O)=O)cc2C#N)cc(-c2cc(F)c[nH]c2=O)cc1C(C)(C)C [I-151, N-(4-{(E)-2-[3-tert-Butyl-5-(5-fluoro-2-oxo-1,2-dihydro-pyridin-3-yl)-2-methoxy-phenyl]-vinyl}-3-cyano-phenyl)-methanesulfonamide]
melting point: 158 to 160 °C | IC50 [1, 2]: 5 nM

COc1c(O)cc(-c2ccc[nH]c2=O)cc1C(C)(C)C [I-23]
melting point: 214 to 215 °C | IC50 [1, 2]: 1170 nM

CC(C)(C)c1cc(CO)c(O)c(-c2ccc[nH]c2=O)c1 [I-10]
melting point: 167 to 168 °C | IC50 [1, 2]: 1600 nM

COc1c(CCc2ccc(NS(C)(=O)=O)cc2F)cc(-c2ccc[nH]c2=O)cc1C(C)(C)C [I-102, N-(4-{2-[3-tert-Butyl-2-methoxy-5-(2-oxo-1,2-dihydro-pyridin-3-yl)-phenyl]-ethyl}-3-fluoro-phenyl)-methanesulfonamide]
melting point: 120 to 122 °C | IC50 [1, 2]: 8 nM

COc1c(/C=C/c2ccccc2)cc(-c2ccc[nH]c2=O)cc1C(C)(C)C [I-144]
melting point: 183 to 185 °C | IC50 [1, 2]: 11 nM

COc1c(NC(=O)c2ccc(NS(C)(=O)=O)cc2)cc(-c2cc(F)c[nH]c2=O)cc1C(C)(C)C [I-81]
melting point: 272 to 274 °C | IC50 [1, 2]: 22 nM

COc1c(/C=C(\C#N)c2ccc(NS(C)(=O)=O)cc2)cc(-c2ccc[nH]c2=O)cc1C(C)(C)C [I-138, N-(4-{(Z)-2-[3-tert-Butyl-2-methoxy-5-(2-oxo-1,2-dihydro-pyridin-3-yl)-phenyl]-1-cyano-vinyl}-phenyl)-methanesulfonamide]
melting point: 288 to 290 °C | IC50 [1, 2]: 10 nM

COc1c(C(=O)c2cccc(CNS(C)(=O)=O)c2)cc(-c2ccc[nH]c2=O)cc1C(C)(C)C [I-65]
melting point: 110 to 115 °C | IC50 [1, 2]: 30 nM

COc1c(CC(C)(CN)c2ccc(NS(C)(=O)=O)cc2)cc(-c2ccc[nH]c2=O)cc1C(C)(C)C (stereo not drawn) [I-197, N-(4-{1-Aminomethyl-2-[3-tert-butyl-2-methoxy-5-(2-oxo-1,2-dihydro-pyridin-3-yl)-phenyl]-1-methyl-ethyl}-phenyl)-methanesulfonamide]
melting point: 240 to 242 °C | IC50 [1, 2]: 84 nM
